Measurements reported in patent US6376485B1, “Benzoxazoles with PDE-inhibiting activity” (Byk Gulden Lomberg Chemische Fabrik GmbH, priority 1998, dated 2002).

Experiments:
[1] = system: PDE4; experiment: Inhibition of PDE4 activity (method of Bauer and Schwabe, adapted to microtiter plates); format: biochemical; conditions: inhibitory concentration as -log IC50 (mol/l)
Protocol: The activity test was carried out according to the method of Bauer and Schwabe, which was adapted to microtiter plates (Naunyn-Schmiedeberg's Arch. Pharmacol. 1980, 311, 193-198). In this test, the PDE reaction takes place in the first step. In a second step, the resulting 5′-nucleotide is cleaved by a 5′-nucleotidase of the snake venom from Crotalus atrox to give the uncharged nucleoside. In the third step, the nucleoside is separated from the remaining charged substrate on ion-exchange columns. The columns are eluted directly into minivials to which 2 ml of scintillator fluid is additionally added for counting […].
The inhibitory values determined for the compounds according to the invention [inhibitory concentration as -log IC50 (mol/l)] results from the following Table A, in which the numbers of the compounds correspond to the numbers of the examples.

SMILES | melting point | Inhibition of the PDE4 activity, -log IC50 [1]
COc1ccc(C2(C#N)CCOCC2)c2nc(C)oc12 [Compound 1, 4a-Cyano-4e-(2-methyl-7-methoxybenzoxazol-4-yl)tetrahydropyran] | 72 °C | 6.87 mol/l
COc1ccc(C2(C#N)CCOCC2)c2nc(C(C)C)oc12 [Compound 2, 4a-Cyano-4e-(2-isopropyl-7-methoxybenzoxazol-4-yl)-tetrahydropyran] | 156.5 °C | 7.86 mol/l
COc1ccc(C2(C#N)CCC(=O)CC2)c2nc(C(C)C)oc12 [Compound 3, 4-Cyano-4-(2-isopropyl-7-methoxybenzoxazol-4-yl)cyclohexanone] | 118 °C | 6.96 mol/l
COc1ccc(C2(C#N)CCC(O)CC2)c2nc(C(C)C)oc12 (stereo not drawn) [Compound 4, cis-4-Cyano-4-(2-isopropyl-7-methoxybenzoxazol-4-yl)cyclohexan-1-ol] | 116.5 °C | 7.77 mol/l
COC(=O)C1CCC(C#N)(c2ccc(OC)c3oc(C(C)C)nc23)CC1 (stereo not drawn) [Compound 5, Methyl cis-4-cyano-(2-isopropyl-7-methoxybenzoxazol-4-yl)cyclohexane-1-carboxylate] | 83 °C | 6.46 mol/l
COc1ccc(C2(C#N)CCC(C(=O)O)CC2)c2nc(C(C)C)oc12 (stereo not drawn) [Compound 6, cis-4-Cyano-4-(2-isopropyl-7-methoxybenzoxazol-4-yl)cyclohexane-1-carboxylic acid] | 217.5 °C | 7.69 mol/l
COc1ccc(C2(C#N)CCC(C(N)=O)CC2)c2nc(C(C)C)oc12 (stereo not drawn) [Compound 7, Cis-4-Cyano-4-(2-isopropyl-7-methoxybenzoxazol-4-yl)cyclohexane-1-carboxamide] | 228 °C | 7.65 mol/l
